Data reported in patent publication US20100130909A1, “TREATMENT OF BARRETT'S ESOPHAGUS USING PHOTODYNAMIC THERAPY” (HEALTH RESEARCH, INC., priority 2007, published 2010).
Like-named read-outs stand apart in the source and are kept apart here.

Legend:
Barrett's mucosa = conditions: cited from earlier work; for Treatment response: CR, PDT + NdYAG thermal ablation: compilation of 1-3 PDT treatments + thermal ablation of small residual islands; for Complications: esophageal stricture / Treatment response: CR (no Barrett's esophagus tissue remained after treatment), PDT only: compilation of 1-3 PDT treatments; for Treatment response: CR (no Barrett's esophagus tissue remained after treatment), PDT only: porfimer sodium 2 mg/kg
[1] = tested on: Barrett's esophagus tissue; experiment: phase I/II trial of photodynamic therapy using HPPH in patients with Barrett's esophagus; assay type: in vivo, human; conditions: 30 patients
Protocol: injecting HPPH in a physiologically compatible medium into a patient having Barrett's esophagus tissue to provide a dose level of 3 through 5 mg/m^2 of body surface area, preferably 3 through 4 mg/m^2 of body surface area,
waiting for a time period of 24 through 60 hours to permit preferential absorption of the
HPPH into Barrett's esophagus tissue, and exposing the Barrett's esophagus tissue to light at a wavelength of about 670±5 nm at an energy of from 75 to 200 Joules/cm, preferably 75 to 200 Joules/cm.
Injection of the HPPH is preferably accomplished intravenously usually over a time period of 0.75 to 3 hours in a physiologically compatible medium. The time period is functionally dependent upon rate of infusion and dose level desired. The concentration is preferably 0.5 through 1.5 mg/ml in medium and the medium is preferably 0.1% polysorbate 80, 2% ethyl alcohol and 5% glucose in normal saline.
Exposure is accomplished using a fiber optic carrying laser light emitted by a laser. The laser may be any suitable laser emitting light at the wavelength and energy desired, e.g. a dye or diode laser. Exposure may be adjusted by length of time of exposure and/or adjustment of light intensity.
Using the above parameters, a phase I/II trial using HPPH and a phase III trial using PHOTOFRIN™, the latter approved by the United States Food and Drug Administration, the following results for response of Barrett's esophagus were obtained.

[2] = 100 patients, percent of patients
[3] = 100 patients, percent of patients, listed as porfimer sodium
[4] = only 1 PDT treatment, percent of patients

Row | Complications: esophageal stricture [1, 4] | Complications: sunburn ([1]; percent of patients) | Substance | Complete ablation of Barrett's mucosa (PDT only or with thermal ablation) (Barrett's mucosa; 100 patients, 2 mg/kg, 630 nm, 100 to 250 J/cm, percent of patients) | Treatment response: CR, PDT + NdYAG thermal ablation (Barrett's mucosa; [2]) | Treatment response: CR, PDT + NdYAG thermal ablation (Barrett's mucosa; [3]) | Complications: esophageal stricture (Barrett's mucosa; [2]) | Complications: esophageal stricture (Barrett's mucosa; [3]) | Treatment response: CR (no Barrett's esophagus tissue remained after treatment), PDT only (Barrett's mucosa; 100 patients, 630 nm, 100 to 250 J/cm, percent of patients) | Treatment response: CR (no Barrett's esophagus tissue remained after treatment), PDT only (Barrett's mucosa; 100 patients, 630 nm, 100 to 250 J/cm, percent of patients, listed as porfimer sodium) | Complications: sunburn (Barrett's mucosa; [2]) | replacement of Barrett's mucosa with normal esophageal mucosa (Barrett's mucosa; all 100 patients treated, 2 mg/kg, 630 nm, 100 to 250 J/cm, percent of mucosa) | Treatment response: patients with >90 to <100% ablation, PDT only ([1]; only 1 PDT treatment, does not include NdYAG thermal ablation) | Treatment response: CR (no Barrett's esophagus tissue remained after treatment), PDT only [1, 4]
1 |  |  | porfimer sodium [PHOTOFRIN] | 43% | 35% CR | 35% | 34% | 34% | 8% CR | 8% | 25-30% | 75-80% |  | 
2 | 12% | <7% | 3-(1-hexyloxy) ethyl-derivative of pyropheophorbide-a [HPPH] |  |  |  |  |  |  |  |  |  | 47% (>90 to <100% | 4% CR
